# Assay results published in patent US10770169B2, “Method of providing a treatment to a subject based on a dynamic pathway map” (THE REGENTS OF THE UNIVERSITY OF CALIFORNIA, priority 2010, dated 2020).
# Where two headings read alike, the source gives them in different places.
# System: panel of 55 breast cancer cell lines
# Test: Cell growth inhibition assay (Cell Titer Glo, 72 h, 9 doses; GI50, TGI, LC50)
# Assay type: cell-based, human
# [1] = cell line CAMA1, value is the negative log10 of mol/L
compound,measurement,setting,value
COc1cc2c(Nc3ccc(NC(=O)c4ccccc4)cc3)ncnc2cc1OCCCN1CCOCC1 [ZM447439],GI50,"cell line AU565, censored GI50 values, value is the negative log10 of mol/L",5.82
same,GI50,"cell line BT20, censored GI50 values, value is the negative log10 of mol/L",5.29
same,GI50,"cell line BT474, censored GI50 values, value is the negative log10 of mol/L",4.20
same,GI50,"cell line BT483, censored GI50 values, value is the negative log10 of mol/L",4.57
same,GI50,"cell line CAMA1, censored GI50 values, value is the negative log10 of mol/L",5.40
same,GI50,"cell line HCC38, censored GI50 values, value is the negative log10 of mol/L",6.24
same,GI50,"cell line HCC70, censored GI50 values, value is the negative log10 of mol/L",6.01
same,GI50,"cell line HCC1143, censored GI50 values, value is the negative log10 of mol/L",4.98
same,GI50,"cell line HCC1187, censored GI50 values, value is the negative log10 of mol/L",6.19
same,GI50,"cell line HCC1419, censored GI50 values, value is the negative log10 of mol/L",5.32
same,GI50,"cell line HCC1428, censored GI50 values, value is the negative log10 of mol/L",5.13
same,GI50,"cell line HCC1500, censored GI50 values, value is the negative log10 of mol/L",5.28
same,GI50,"cell line HCC1937, censored GI50 values, value is the negative log10 of mol/L",5.23
same,GI50,"cell line HCC2185, censored GI50 values, value is the negative log10 of mol/L",5.92
same,GI50,"cell line MDAMB134VI, censored GI50 values, value is the negative log10 of mol/L",4.66
same,GI50,"cell line MDAMB175VII, censored GI50 values, value is the negative log10 of mol/L",4.28
same,GI50,"cell line MDAMB361, censored GI50 values, value is the negative log10 of mol/L",5.53
same,GI50,"cell line MDAMB436, censored GI50 values, value is the negative log10 of mol/L",5.33
same,GI50,"cell line MDAMB468, censored GI50 values, value is the negative log10 of mol/L",6.18
same,GI50,"cell line SKBR3, censored GI50 values, value is the negative log10 of mol/L",4.77
same,GI50,"cell line SUM52PE, censored GI50 values, value is the negative log10 of mol/L",5.40
same,GI50,"cell line SUM185PE, censored GI50 values, value is the negative log10 of mol/L",4.50
same,GI50,"cell line T47D, censored GI50 values, value is the negative log10 of mol/L",4.94
same,GI50,"cell line UACC812, censored GI50 values, value is the negative log10 of mol/L",4.88
same,GI50,"cell line ZR75B, censored GI50 values, value is the negative log10 of mol/L",5.00
same,GI50,"cell line ZR751, censored GI50 values, value is the negative log10 of mol/L",5.46
CCc1c2c(nc3ccc(OC(=O)N4CCC(N5CCCCC5)CC4)cc13)-c1cc3c(c(=O)n1C2)COC(=O)[C@]3(O)CC [CPT-11],GI50,"CAMA1 cell line, censored GI50 values, value is the negative log10 of mol/L",4.84
same,GI50,"MDAMB157 cell line, censored GI50 values, value is the negative log10 of mol/L",4.80
same,GI50,[1],4.84
same,GI50,"cell line MDAMB157, value is the negative log10 of mol/L",4.80
COc1cc2c(Nc3ccc(NC(=O)c4ccccc4)cc3)ncnc2cc1OCCCN1CCOCC1 [ZM 447439],GI50,"cell line AU565, value is the negative log10 of mol/L",5.82
same,GI50,"cell line BT20, value is the negative log10 of mol/L",5.29
same,GI50,"cell line BT474, value is the negative log10 of mol/L",4.20
same,GI50,"cell line BT483, value is the negative log10 of mol/L",4.57
same,GI50,[1],5.40
same,GI50,"cell line HCC38, value is the negative log10 of mol/L",6.24
same,GI50,"cell line HCC70, value is the negative log10 of mol/L",6.01
same,GI50,"cell line HCC1143, value is the negative log10 of mol/L",4.98
same,GI50,"cell line HCC1187, value is the negative log10 of mol/L",6.19
same,GI50,"cell line HCC1419, value is the negative log10 of mol/L",5.32
same,GI50,"cell line HCC1428, value is the negative log10 of mol/L",5.13
same,GI50,"cell line HCC1500, value is the negative log10 of mol/L",5.28
same,GI50,"cell line HCC1937, value is the negative log10 of mol/L",5.23
same,GI50,"cell line HCC1954, value is the negative log10 of mol/L",4.48
same,GI50,"cell line HCC2185, value is the negative log10 of mol/L",5.92
same,GI50,"cell line HCC3153, value is the negative log10 of mol/L",4.48
same,GI50,"cell line MDAMB134V, value is the negative log10 of mol/L",4.66
same,GI50,"cell line MDAMB175V, value is the negative log10 of mol/L",4.28
same,GI50,"cell line MDAMB361, value is the negative log10 of mol/L",5.53
same,GI50,"cell line MDAMB415, value is the negative log10 of mol/L",4.48
same,GI50,"cell line MDAMB436, value is the negative log10 of mol/L",5.33
same,GI50,"cell line MDAMB453, value is the negative log10 of mol/L",4.45
same,GI50,"cell line MDAMB468, value is the negative log10 of mol/L",6.18
same,GI50,"cell line SKBR3, value is the negative log10 of mol/L",4.77
same,GI50,"cell line SUM52PE, value is the negative log10 of mol/L",5.40
same,GI50,"cell line SUM149PT, value is the negative log10 of mol/L",4.18
same,GI50,"cell line SUM185PE, value is the negative log10 of mol/L",4.50
same,GI50,"cell line SUM1315MO, value is the negative log10 of mol/L",4.48
same,GI50,"cell line T47D, value is the negative log10 of mol/L",4.94
same,GI50,"cell line UACC812, value is the negative log10 of mol/L",4.88
same,GI50,"cell line ZR75B, value is the negative log10 of mol/L",5.00
same,GI50,"cell line ZR751, value is the negative log10 of mol/L",5.46
CN(Cc1cnc2nc(N)nc(N)c2n1)c1ccc(C(=O)N[C@@H](CCC(=O)O)C(=O)O)cc1 [Methotrexate],GI50,"Homo sapiens, 600MPE cell line, censored GI50 values, read-out: GI50 (converted)",166 µM
same,GI50,"Homo sapiens, AU565, AU565 cell line, censored GI50 values, read-out: GI50 (converted)",166 µM
same,GI50,"Homo sapiens, AU565, cell line AU565, read-out: GI50 (converted)",166 µM
same,GI50,"Homo sapiens, BT-20, cell line BT20, read-out: GI50 (converted)",331 µM
same,GI50,"Homo sapiens, BT-474, cell line BT474, read-out: GI50 (converted)",331 µM
same,GI50,"Homo sapiens, BT-549, cell line BT549, read-out: GI50 (converted)",331 µM
same,GI50,"Homo sapiens, CAMA-1, CAMA1 cell line, censored GI50 values, read-out: GI50 (converted)",0.0794 µM
same,GI50,"Homo sapiens, CAMA-1, cell line CAMA1, read-out: GI50 (converted)",0.0794 µM
same,GI50,"Homo sapiens, HCC38, cell line HCC38, read-out: GI50 (converted)",331 µM
same,GI50,"Homo sapiens, HCC202, cell line HCC202, read-out: GI50 (converted)",0.0204 µM
same,GI50,"Homo sapiens, HCC1143, HCC1143 cell line, censored GI50 values, read-out: GI50 (converted)",0.024 µM
same,GI50,"Homo sapiens, HCC1143, cell line HCC1143, read-out: GI50 (converted)",0.024 µM
same,GI50,"Homo sapiens, HCC1187, HCC1187 cell line, censored GI50 values, read-out: GI50 (converted)",166 µM
same,GI50,"Homo sapiens, HCC1187, cell line HCC1187, read-out: GI50 (converted)",166 µM
same,GI50,"Homo sapiens, HCC1395, cell line HCC1395, read-out: GI50 (converted)",331 µM
same,GI50,"Homo sapiens, HCC1419, HCC1419 cell line, censored GI50 values, read-out: GI50 (converted)",166 µM
same,GI50,"Homo sapiens, HCC1419, cell line HCC1419, read-out: GI50 (converted)",166 µM
same,GI50,"Homo sapiens, HCC1428, cell line HCC1428, read-out: GI50 (converted)",331 µM
same,GI50,"Homo sapiens, HCC1500, HCC1500 cell line, censored GI50 values, read-out: GI50 (converted)",0.0309 µM
same,GI50,"Homo sapiens, HCC1500, cell line HCC1500, read-out: GI50 (converted)",0.0309 µM
same,GI50,"Homo sapiens, HCC1806, HCC1806 cell line, censored GI50 values, read-out: GI50 (converted)",166 µM
same,GI50,"Homo sapiens, HCC1806, cell line HCC1806, read-out: GI50 (converted)",166 µM
same,GI50,"Homo sapiens, HCC1937, cell line HCC1937, read-out: GI50 (converted)",331 µM
same,GI50,"Homo sapiens, HCC1954, HCC1954 cell line, censored GI50 values, read-out: GI50 (converted)",0.0155 µM
same,GI50,"Homo sapiens, HCC1954, cell line HCC1954, read-out: GI50 (converted)",0.0155 µM
same,GI50,"Homo sapiens, MCF7, cell line MCF7, read-out: GI50 (converted)",0.0575 µM
same,GI50,"Homo sapiens, MDA-MB-157, cell line MDAMB157, read-out: GI50 (converted)",166 µM
same,GI50,"Homo sapiens, MDA-MB-231, cell line MDAMB231, read-out: GI50 (converted)",331 µM
same,GI50,"Homo sapiens, MDA-MB-361, cell line MDAMB361, read-out: GI50 (converted)",0.158 µM
same,GI50,"Homo sapiens, MDA-MB-415, cell line MDAMB415, read-out: GI50 (converted)",331 µM
same,GI50,"Homo sapiens, MDA-MB-436, cell line MDAMB436, read-out: GI50 (converted)",0.02 µM
same,GI50,"Homo sapiens, MDA-MB-453, cell line MDAMB453, read-out: GI50 (converted)",331 µM
same,GI50,"Homo sapiens, MDA-MB-468, cell line MDAMB468, read-out: GI50 (converted)",0.0324 µM
same,GI50,"Homo sapiens, SK-BR-3, cell line SKBR3, read-out: GI50 (converted)",0.692 µM
same,GI50,"Homo sapiens, SUM52PE, cell line SUM52PE, read-out: GI50 (converted)",331 µM
same,GI50,"Homo sapiens, SUM149PT, cell line SUM149PT, read-out: GI50 (converted)",331 µM
same,GI50,"Homo sapiens, SUM185PE, cell line SUM185PE, read-out: GI50 (converted)",331 µM
same,GI50,"Homo sapiens, SUM225CWN, cell line SUM225CWN, read-out: GI50 (converted)",331 µM
same,GI50,"Homo sapiens, SUM-159-PT, cell line SUM159PT, read-out: GI50 (converted)",331 µM
same,GI50,"Homo sapiens, ZR-75-1, cell line ZR751, read-out: GI50 (converted)",0.0661 µM
same,GI50,"Homo sapiens, ZR-75B, cell line ZR75B, read-out: GI50 (converted)",331 µM
same,GI50,"Homo sapiens, cell line 600MPE, read-out: GI50 (converted)",166 µM
same,GI50,"Homo sapiens, cell line HCC2185, read-out: GI50 (converted)",331 µM
same,GI50,"Homo sapiens, cell line LY2, read-out: GI50 (converted)",0.0339 µM
same,GI50,"Homo sapiens, cell line MDAMB134V, read-out: GI50 (converted)",331 µM
same,GI50,"Homo sapiens, cell line SUM1315MO, read-out: GI50 (converted)",331 µM
